The values that follow come from patent publication US20070099891A1, “Medicinal compositions and combinations” (priority 2003, published 2007).

One test has as its system LDL receptor protein. The experiment in a line: Expression of LDL receptor protein in liver of endogenous hyperlipemia rabbit (immunoblotting). Type of test: in vivo. As to conditions: casein diet. Here is the method: For the rabbit used in Example 2, liver was taken out after one day of a final administration of the agent. A homogenizing buffer (20 mM Tris-HCl (pH 8.0), 1 mM CaCl2, 150 mM NaCl, a mix of protease inhibitor) was added to a part of this liver and the mixture was homogenized and centrifuged at 8000×g, 4° C. for 10 min., thereafter the supernatant was ultracentrifuged at […], 4° C. for 60 min. The resulting precipitate was washed by adding the homogenizing buffer and centrifuging at 10,000×g, 4° C. for 30 min., and thereafter was suspended in a suspension buffer (125 mM Tris-maleate (pH 6.8), 1 mM CaCl2, 160 mM NaCl, 1% (w/v) Triton X-100, Protease inhibitor (Complete™, Boehringer Ingelhaim Co., Ltd., Ingelheim, Germany)) to prepare a fraction of the liver membrane. After mixing with a buffer (125 mM Tris-HCl (pH 6.8), 20% (v/v) glycerol, 4% (w/v) sodium dodecyl sulfate (hereinafter, referred to as SDS) and 0.001% (w/v) bromophenol blue), the fraction was subjected to SDS polyacrylamide electrophoresis (using a 7.5% polyacrylamide gel), and the resultant was transferred to a polyvinylidene difluoride (PVDF) membrane and then the amount of LDL receptor protein was evaluated by an immunoblotting using anti-LDL receptor antibody. […]

A further test relates to HepG2 cell. The experiment in a line: LDL binding, uptake and degradation activity in cultured human hepatic cell line HepG2 ([125I]LDL). As to conditions: for Binding Amounts / Degradation Amounts / Uptake Amounts: mean ± standard error, 6 experiments. Format: cell-based. Here is the method: The cultured human hepatic cell line HepG2 cell was purchased from the Dainippon Pharmaceuticals Co. Ltd. (Osaka, Japan). The determinations of LDL binding, uptake and degradation activity were performed according to a prior report (Method in Enzymology, 98, 241-255, 1983). Cells were seeded in a 24 well plate and were incubated in the Dulbecco's modified Eagle/F-12 (DMEM/F-12) medium containing 10% fetal bovine serum and antibiotics at 37° C. for two days. After washing the cells, a DMEM/F-12 medium containing 10% lipoprotein-removed serum, the test substrate and the antibiotics was added and the cells were incubated at 37° C. for 19 hours. After adding [^125I]LDL, the cells were incubated at 37° C. for another 5 hours. The culture supernatant was collected and trichloroacetic acid was added thereto, and then it was statically kept for 30 minutes or more at 4° C. After centrifuging (700×g, 4° C., 15 min.), the supernatant was separated and sodium iodide was added thereto, and further hydrogen peroxide was added. After treating the mixture at room temperature for 5 min., chloroform was added and the mixture was stirred. After centrifuging (700×g, 4° C., 5 min.), the radioactivity in the supernatant was measured by a gamma counter, and then the data thus obtained was evaluated as an amount of degradation of LDL. Separately, after washing the cells thoroughly, a dissociation buffer (50 mM NaCl, 10 mM 2-[4-(2-hydroxyethyl)-1-piperadinyl]ethane sulfonic acid (HEPES, pH 7.4), 10 mg/mL heparin) was added and then the cells were statically kept at 4° C. for 60 min. or more. […] Furthermore, 1N sodium hydroxide was added to the remaining cells and the mixture was reacted for more than 10 min. to dissolve the cells. […] On the other hand, the amounts of non-specific degradation, binding and uptake were evaluated by coexisting an excess of non-labeled LDL on addition of [^125I] LDL, while the amounts of specific degradation, binding and uptake were obtained by subtracting the amounts of non-specific degradation, binding and uptake from the total amounts of degradation, binding and uptake and further calibrating with the amounts of protein.

Test [1] concerns rabbit with endogenous hyperlipemia caused by a casein diet load. Kind of test: Blood cholesterol lowering action in endogenous hyperlipemia rabbit (casein diet). Type of test: in vivo, New Zealand White rabbit. Here is the method: 8 weeks old male New Zealand White rabbit were bred for 12 days with ad libitum water and feeding conditions (rabbit·guinea pig breeding feed RC4, Oriental Yeast Co., Ltd., Tokyo, Japan). Thereafter, the diet was replaced with the casein diet containing 27% casein (Oriental Yeast Co., Ltd., Tokyo, Japan), and then the restricted feeding to the 100 g per 3 kg weight was performed for one week. At this point, the blood was collected via auricular veins and the plasma total cholesterol amounts was measured and then these rabbits were divided such that the mean of the weight and the plasma total cholesterol were equal approximately. […] Each agent was dissolved in propylene glycol containing 0.5% polyoxyethylenesorbitan monooleate (Tween 80) and then these were administered orally. On the other hand, for control group, the solvent (propylene glycol comprising 0.5% Tween 80) was administered orally. At one day after final administration, the blood was collected and plasma total cholesterol was measured and also the lipoprotein was fractioned according to the differential ultracentrifugation method (Nobuhiro, Yamada, Yasushi Sato edit.: Study strategy of Arteriosclerotic+Hyperlipemia, 63-69, 1996, Shujunsha Co. Ltd.), and then the amounts of cholesterol in the fraction of LDL were measured. The amount of total cholesterol in plasma and the amount of cholesterol in LDL fraction were determined by using an automatic biochemical analyzer (Biochemical Analyzer CHEM 1, Bayer Corporation, NY, USA).

The conditions of test [2]: single agent; not reduced more even if the dosage is increased; cited from earlier work.
Setting [3] is: 1 mg/kg orally for 3 weeks, mean ± standard error.

Regarding `CC(C)c1c(C(=O)Nc2ccccc2)c(-c2ccccc2)c(-c2ccc(F)cc2)n1CC[C@@H](O)C[C@@H](O)CC(=O)O` [Atorvastatin, atorvastatin, reference compound], in the test on LDL receptor protein (atorvastatin 1 and 3 mg/kg), the “amount of the expression of LDL receptor protein in liver (in words, FIG. 1)” value is given as “increased”. Besides, the “Binding Amounts” value was 81.7 ± 2.1 ng/mg protein in the test with HepG2 cell (single agent 0.1 μM), 86.3 ± 2.7 ng/mg protein in the test on HepG2 cell (single agent 1 μM) and 95.5 ± 4.0 ng/mg protein with HepG2 cell (single agent 10 μM). Also, the “Degradation Amounts” value with HepG2 cell (single agent 0.1 μM) came to 800.9 ± 32.5 ng/mg protein; with HepG2 cell (single agent 1 μM), 1000.5 ± 62.9 ng/mg protein; in the test on HepG2 cell (single agent 10 μM) it was 1062.3 ± 66.0 ng/mg protein.

`CCCCn1c(=O)c(NC(=O)Nc2c(C(C)C)cc(N)cc2C(C)C)c(-c2cccc(OCCCO)c2)c2cccnc21` [Compd. A, N-[1-butyl-4-[3-[3-(hydroxy)propoxy]phenyl]-1,2-dihydro-2-oxo-1,8-naphthyridine-3-yl]-N′-(2,6-diisopropyl-4-aminophenyl)urea]: in test [1] (setting [3]), the “plasma LDL cholesterol” value was determined as 52 ± 9 mg/dL and the plasma total cholesterol stood at 108 ± 5 mg/dL. The “plasma total cholesterol lowering action and plasma LDL cholesterol lowering action (in words)” value in test [1] (1 mg/kg, compared to control) is “significant effects”. The “amount of the expression of LDL receptor protein in liver (in words, FIG. 1)” value in the test on LDL receptor protein (compound A 1 mg/kg) is listed as “increased”. The “amounts of binding, uptake and degradation of LDL (in words)” value in the test with HepG2 cell (compound A 0.01 to 1 μM) was “increased”. In the test on HepG2 cell (single agent 0.01 μM), the “Binding Amounts” value is 85.2 ± 3.6 ng/mg protein, the “Degradation Amounts” value was found to be 927.5 ± 90.0 ng/mg protein and the “Uptake Amounts” value stood at 852.9 ± 47.3 ng/mg protein. In the test on HepG2 cell (single agent 0.1 μM), the “Binding Amounts” value amounted to 90.9 ± 4.1 ng/mg protein, the “Degradation Amounts” value was found to be 1016.8 ± 45.3 ng/mg protein and the “Uptake Amounts” value is listed as 886.4 ± 29.2 ng/mg protein. In the test with HepG2 cell (single agent 1 μM), the “Binding Amounts” value was found to be 93.7 ± 2.5 ng/mg protein, the “Degradation Amounts” value came out at 1126.3 ± 70.3 ng/mg protein and the “Uptake Amounts” value is reported as 1172.2 ± 46.2 ng/mg protein.

Regarding `O=C1[C@H](CC[C@H](O)c2ccc(F)cc2)[C@@H](c2ccc(O)cc2)N1c1ccc(F)cc1` [ezetimibe, 1-(4-fluorophenyl)-3(R)-[3-(4-fluorophenyl)-3(S)-hydroxypropyl]-4(S)-(4-hydroxyphenyl)-2-azetidinone], the “degree of lowering of LDL cholesterol” value in test [2] was 15 to 20%.
